Experiments:
[1] = target: T1, MCR from ANME-2d^O (Methyl-Coenzyme M Reductase) (Candidatus Methanoperedens sp. BLZ2, UniProt Z9I9A7LEW2+Z9NDC8PKK5+Z9T835AYK6); assay: X-ray crystal structure, […] Å; format: binding; details: as isolated, trapped in active site; reduced thiol
T1 construct: native purification from bioreactor enrichment; (alpha beta gamma)2 dimer of heterotrimers; seven native PTMs including 3(S)-methylhistidine 159 on gamma; full length
T1 sequence (Z9T835AYK6 1-562): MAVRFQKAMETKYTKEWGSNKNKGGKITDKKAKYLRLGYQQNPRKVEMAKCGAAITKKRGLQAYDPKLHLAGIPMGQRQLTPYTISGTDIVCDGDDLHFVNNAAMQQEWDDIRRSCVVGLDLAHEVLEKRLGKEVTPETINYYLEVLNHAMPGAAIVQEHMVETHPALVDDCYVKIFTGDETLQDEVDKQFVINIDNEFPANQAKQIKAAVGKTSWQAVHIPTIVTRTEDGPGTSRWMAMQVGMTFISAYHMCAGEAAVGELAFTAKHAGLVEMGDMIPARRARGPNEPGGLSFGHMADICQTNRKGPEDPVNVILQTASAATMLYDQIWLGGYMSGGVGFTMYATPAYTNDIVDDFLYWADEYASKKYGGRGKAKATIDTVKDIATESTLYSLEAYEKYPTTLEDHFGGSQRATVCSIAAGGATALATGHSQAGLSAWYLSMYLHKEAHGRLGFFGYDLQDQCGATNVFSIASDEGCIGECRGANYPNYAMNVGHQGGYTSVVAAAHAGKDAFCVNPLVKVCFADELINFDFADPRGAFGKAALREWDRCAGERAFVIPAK
T1 sequence (Z9NDC8PKK5 1-434): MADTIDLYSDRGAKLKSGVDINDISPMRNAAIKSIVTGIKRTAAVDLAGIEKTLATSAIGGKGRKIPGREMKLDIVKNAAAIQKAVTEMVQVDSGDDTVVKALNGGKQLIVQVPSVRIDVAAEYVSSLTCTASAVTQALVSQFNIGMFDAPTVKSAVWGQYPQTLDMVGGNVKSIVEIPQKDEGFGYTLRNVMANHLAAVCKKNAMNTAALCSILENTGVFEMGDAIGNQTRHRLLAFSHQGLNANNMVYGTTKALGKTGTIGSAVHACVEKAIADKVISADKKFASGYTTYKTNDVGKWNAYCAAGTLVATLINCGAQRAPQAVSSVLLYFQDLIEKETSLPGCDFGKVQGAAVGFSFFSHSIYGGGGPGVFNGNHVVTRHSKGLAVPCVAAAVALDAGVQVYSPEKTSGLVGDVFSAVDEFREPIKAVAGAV
T1 sequence (Z9I9A7LEW2 1-249): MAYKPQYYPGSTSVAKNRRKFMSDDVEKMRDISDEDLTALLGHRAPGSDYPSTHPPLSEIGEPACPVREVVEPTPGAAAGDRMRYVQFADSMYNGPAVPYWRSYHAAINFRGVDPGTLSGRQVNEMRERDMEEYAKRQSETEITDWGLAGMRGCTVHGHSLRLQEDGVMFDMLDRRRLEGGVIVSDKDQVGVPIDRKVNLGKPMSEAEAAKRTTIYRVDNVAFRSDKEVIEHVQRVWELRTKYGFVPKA

[2] = target: T2, MCR from ANME-2d^V (Methyl-Coenzyme M Reductase) (Candidatus Methanoperedens sp., UniProt Z9LNO2W1Q3+Z9MSE7NHP1+Z9ZZ61DSW2); assay: X-ray crystal structure, […] Å; details: as isolated; mixture of ligands modelled in active site
T2 sequence (Z9MSE7NHP1 1-566): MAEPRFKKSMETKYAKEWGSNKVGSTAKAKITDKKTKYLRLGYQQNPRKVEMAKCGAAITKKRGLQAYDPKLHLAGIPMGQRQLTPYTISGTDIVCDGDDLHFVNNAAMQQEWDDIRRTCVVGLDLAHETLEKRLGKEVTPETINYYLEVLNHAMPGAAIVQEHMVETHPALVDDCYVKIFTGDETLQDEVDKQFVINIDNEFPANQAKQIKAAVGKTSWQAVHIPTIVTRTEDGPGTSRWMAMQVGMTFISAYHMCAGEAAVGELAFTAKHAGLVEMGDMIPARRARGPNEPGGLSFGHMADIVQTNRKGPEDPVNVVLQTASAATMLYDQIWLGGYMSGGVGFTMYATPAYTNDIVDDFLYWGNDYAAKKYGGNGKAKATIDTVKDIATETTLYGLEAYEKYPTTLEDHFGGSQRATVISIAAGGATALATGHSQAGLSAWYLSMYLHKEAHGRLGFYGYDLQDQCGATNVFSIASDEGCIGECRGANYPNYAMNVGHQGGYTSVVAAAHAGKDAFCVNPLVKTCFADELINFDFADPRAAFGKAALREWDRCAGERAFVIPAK
T2 sequence (Z9ZZ61DSW2 1-434): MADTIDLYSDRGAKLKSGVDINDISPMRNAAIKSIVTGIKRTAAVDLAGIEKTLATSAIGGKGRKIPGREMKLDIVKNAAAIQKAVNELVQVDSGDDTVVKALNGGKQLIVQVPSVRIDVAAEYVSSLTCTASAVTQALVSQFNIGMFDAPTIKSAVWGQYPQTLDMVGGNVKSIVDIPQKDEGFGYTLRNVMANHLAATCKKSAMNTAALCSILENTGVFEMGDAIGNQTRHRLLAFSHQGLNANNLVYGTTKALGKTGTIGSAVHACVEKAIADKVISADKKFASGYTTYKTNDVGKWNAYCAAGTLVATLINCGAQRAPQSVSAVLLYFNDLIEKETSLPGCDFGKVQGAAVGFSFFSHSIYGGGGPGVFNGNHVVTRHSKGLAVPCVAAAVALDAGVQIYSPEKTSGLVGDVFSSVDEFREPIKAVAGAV
T2 sequence (Z9LNO2W1Q3 1-249): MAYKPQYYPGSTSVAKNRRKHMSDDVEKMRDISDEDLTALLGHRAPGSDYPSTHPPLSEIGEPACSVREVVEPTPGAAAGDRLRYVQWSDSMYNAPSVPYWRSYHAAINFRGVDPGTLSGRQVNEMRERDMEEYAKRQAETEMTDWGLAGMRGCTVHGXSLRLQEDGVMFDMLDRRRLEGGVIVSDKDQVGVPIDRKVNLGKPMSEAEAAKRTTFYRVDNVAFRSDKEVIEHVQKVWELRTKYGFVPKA

Row | Compound | X-ray crystal structure, 0.98 Å [1] | X-ray crystal structure, 0.98 Å [2]
1 | C[C@@H](OP(=O)(O)O)[C@H](NC(=O)CCCCCCS)C(=O)O [CoB-SH] | MCRs from ANME-2c and ANME-2d^O contain reduced coenzymes trapped in the active site | 
2 | O=S(=O)(O)CCS [CoM-SH] | MCRs from ANME-2c and ANME-2d^O contain reduced coenzymes trapped in the active site | optimal when the model included CoM-SH, CoB-SH, the heterodisulfide, and methyl-CoM
3 | C[C@@H](OP(=O)(O)O)[C@H](NC(=O)CCCCCCSSCCS(=O)(=O)O)C(=O)O [heterodisulfide] |  | optimal when the model included CoM-SH, CoB-SH, the heterodisulfide, and methyl-CoM

Source: publication PMC12413448, “Atomic resolution structures of the methane-activating enzyme in anaerobic methanotrophy reveal extensive post-translational modifications” (Nature Communications, 2025)
